Tests used:
Type in all cases: cell-based
E. coli BL21 = assay: MIC against Gram-negative bacteria: E. coli BL21; details: 5×10^5 CFU/mL
Method in brief: (§1)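 Inocula prepared by growing LB cultures at 37° C to 0.5 McFarland, centrifuging at 4000×g, and resuspending in fresh medium. Final density 5×10^5 CFU/mL per well with two-fold dilutions of purified EGF domain protein; shaking incubation at 37° C.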

Pseudomonas aeruginosa = assay: MIC against Gram-negative bacteria: Pseudomonas aeruginosa; details: 5×10^5 CFU/mL
Method in brief: as §1

Citrobacter diversus = assay: MIC against Gram-negative bacteria: Citrobacter diversus; details: 5×10^5 CFU/mL
Method in brief: as §1

Moraxella catarrhalis = assay: MIC against Gram-negative bacteria: Moraxella catarrhalis; details: 5×10^5 CFU/mL
Method in brief: as §1

Proteus mirabilis = assay: MIC against Gram-negative bacteria: Proteus mirabilis; details: 5×10^5 CFU/mL
Method in brief: as §1

E. coli DH5α = assay: Antibacterial activity: MIC and growth curve against E. coli DH5α in 96-well plate; details: minimal inhibitory concentration against E. coli DH5α; 96-well plate, 5×10^5 CFU/mL, 37° C., judged after 8 h
Method in brief: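 Log-phase DH5α (OD600 about 0.5, 37° C, 185 rpm in LB) was pelleted, resuspended in fresh LB and seeded at 5×10^5 CFU/mL with recombinant protein at 50, 25 and 12.5 μg/mL (two-fold series), in triplicate. Plates were shaken at 175 rpm, 37° C, and OD600 was read every 30 min. MIC was the lowest concentration with no growth.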

Proteus vulgaris = assay: MIC against Gram-negative bacteria: Proteus vulgaris; details: 5×10^5 CFU/mL
Method in brief: as §1

Serratia marcescens = assay: MIC against Gram-negative bacteria: Serratia marcescens; details: 5×10^5 CFU/mL
Method in brief: as §1

Enterobacter cloacae = assay: MIC against Gram-negative bacteria: Enterobacter cloacae; details: 5×10^5 CFU/mL
Method in brief: as §1

Klebsiella pneumonia = assay: MIC against Gram-negative bacteria: Klebsiella pneumonia; details: 5×10^5 CFU/mL
Method in brief: as §1

Aeromonas hydrophila = assay: MIC against Gram-negative bacteria: Aeromonas hydrophila; details: 5×10^5 CFU/mL
Method in brief: as §1

[1] = E. coli BL21, 96-well plate, 37° C., 10 h
[2] = Pseudomonas aeruginosa, 96-well plate, 37° C., 10 h
[3] = Citrobacter diversus, 96-well plate, 37° C., 10 h
[4] = Moraxella catarrhalis, 96-well plate, 37° C., 10 h
[5] = Proteus mirabilis, 96-well plate, 37° C., 10 h
[6] = Proteus vulgaris, 96-well plate, 37° C., 10 h
[7] = Serratia marcescens, 96-well plate, 37° C., 10 h
[8] = Enterobacter cloacae, 96-well plate, 37° C., 10 h
[9] = Klebsiella pneumonia, 96-well plate, 37° C., 10 h
[10] = Aeromonas hydrophila, 96-well plate, 37° C., 10 h
[11] = 10 h cultivation at 37° C., two-fold serial dilution

Q: With “PRT1498 (PESPCLQNPCQNDGQCREQGATFTCECEVGYGGGLCM; listed as Homo sapiens)” as the substance, how does the “MIC (μg/mL) E. coli BL21” value (E. coli BL21; [1]) read?
A: Its value is 25 µg/mL.

Q: What about the “MIC (μg/mL) P. aeruginosa” value (Pseudomonas aeruginosa; [2]) of the same substance?
A: The value was 12.5 µg/mL.

Q: And the “MIC (μg/mL) C. diversus” value (Citrobacter diversus; [3])?
A: The value was 50 µg/mL.

Q: What about the “MIC (μg/mL) M. catarrhalis” value (Moraxella catarrhalis; [4]) of the same substance?
A: The value was 12.5 µg/mL.

Q: What about the “MIC (μg/mL) P. mirabilis” value (Proteus mirabilis; [5]) of the same substance?
A: The value was 50 µg/mL.

Q: What about the MIC (E. coli DH5α) of the same substance?
A: Its MIC is 50 µg/mL.

Q: What about the “MIC (μg/mL) P. vulgaris” value (Proteus vulgaris; [6]) of the same substance?
A: Its value is 12.5 µg/mL.

Q: What about the “MIC (μg/mL) S. marcescens” value (Serratia marcescens; [7]) of the same substance?
A: The value was 12.5 µg/mL.

Q: And the “MIC (μg/mL) E. cloacae” value (Enterobacter cloacae; [8])?
A: The value was 50 µg/mL.

Q: What about the “MIC (μg/mL) K. pneumonia” value (Klebsiella pneumonia; [9]) of the same substance?
A: Its value is 12.5 µg/mL.

Q: And the “MIC (μg/mL) A. hydrophila” value (Aeromonas hydrophila; [10])?
A: The value was 12.5 µg/mL.

Q: Which “MIC (μg/mL) E. coli BL21” value (E. coli BL21; [1]) does the source give for “PRT60 (EVDECSRPNRGGCEQRCLNTLGSYKCSCDPGYELAPDKRRCE; listed as Homo sapiens)” here?
A: The value was 12.5 µg/mL.

Q: And the “MIC (μg/mL) P. aeruginosa” value (Pseudomonas aeruginosa; [2])?
A: The value was 12.5 µg/mL.

Q: And the “MIC (μg/mL) C. diversus” value (Citrobacter diversus; [3])?
A: Its value is 12.5 µg/mL.

Q: What about the “MIC (μg/mL) M. catarrhalis” value (Moraxella catarrhalis; [4]) of the same substance?
A: Its value is 25 µg/mL.

Q: What about the “MIC (μg/mL) P. mirabilis” value (Proteus mirabilis; [5]) of the same substance?
A: The value was 50 µg/mL.

Q: And the MIC (E. coli DH5α)?
A: Its MIC is 12.5 µg/mL.

Q: And the “MIC (μg/mL) P. vulgaris” value (Proteus vulgaris; [6])?
A: Its value is 12.5 µg/mL.

Q: What about the “MIC (μg/mL) S. marcescens” value (Serratia marcescens; [7]) of the same substance?
A: The value was 50 µg/mL.

Q: What about the “MIC (μg/mL) E. cloacae” value (Enterobacter cloacae; [8]) of the same substance?
A: The value was 12.5 µg/mL.

Q: And the “MIC (μg/mL) K. pneumonia” value (Klebsiella pneumonia; [9])?
A: Its value is 12.5 µg/mL.

Q: What about the “MIC (μg/mL) A. hydrophila” value (Aeromonas hydrophila; [10]) of the same substance?
A: Its value is 12.5 µg/mL.

Q: Which “MIC E. coli BL21” value (E. coli BL21; 96-well plate, 37° C., 10 h) does the source give for “PRT618 (CDCDPAGIAGPCDAGRCVCKPAVTGERCDRCRSGYYNLDGGNPEGCTQ; listed as Homo sapiens)” here?
A: The value was 25 µg/mL.

Q: And the “MIC P. aeruginosa” value (Pseudomonas aeruginosa; 96-well plate, 37° C., 10 h)?
A: Its value is 12.5 µg/mL.

Q: What about the “MIC C. diversus” value (Citrobacter diversus; 96-well plate, 37° C., 10 h) of the same substance?
A: Its value is 12.5 µg/mL.

Q: And the “MIC M. catarrhalis” value (Moraxella catarrhalis; 96-well plate, 37° C., 10 h)?
A: The value was 50 µg/mL.

Q: What about the “MIC P. mirabilis” value (Proteus mirabilis; 96-well plate, 37° C., 10 h) of the same substance?
A: Its value is 12.5 µg/mL.

Q: What about the MIC (E. coli DH5α) of the same substance?
A: The MIC was 50 µg/mL.

Q: What about the “MIC P. vulgaris” value (Proteus vulgaris; 96-well plate, 37° C., 10 h) of the same substance?
A: Its value is 50 µg/mL.

Q: What about the “MIC S. marcescens” value (Serratia marcescens; 96-well plate, 37° C., 10 h) of the same substance?
A: The value was 25 µg/mL.

Q: And the “MIC E. cloacae” value (Enterobacter cloacae; 96-well plate, 37° C., 10 h)?
A: Its value is 12.5 µg/mL.

Q: What about the “MIC K. pneumonia” value (Klebsiella pneumonia; 96-well plate, 37° C., 10 h) of the same substance?
A: The value was 50 µg/mL.

Q: What about the “MIC A. hydrophila” value (Aeromonas hydrophila; 96-well plate, 37° C., 10 h) of the same substance?
A: The value was 50 µg/mL.

Q: For “PRT451 (SFYCSCRPGYKLMSDKRTCVDIDE; listed as Homo sapiens)”, which “MIC against E. coli BL21” value (E. coli BL21; 96-well plate, 37° C., 10 h) is on record?
A: The value was 50 µg/mL.

Q: What about the “MIC against P. aeruginosa” value (Pseudomonas aeruginosa; 96-well plate, 37° C., 10 h) of the same substance?
A: The value was 25 µg/mL.

Q: And the “MIC against C. diversus” value (Citrobacter diversus; 96-well plate, 37° C., 10 h)?
A: Its value is 12.5 µg/mL.

Q: And the “MIC against M. catarrhalis” value (Moraxella catarrhalis; 96-well plate, 37° C., 10 h)?
A: Its value is 50 µg/mL.

Q: What about the “MIC against P. mirabilis” value (Proteus mirabilis; 96-well plate, 37° C., 10 h) of the same substance?
A: Its value is 12.5 µg/mL.

Q: And the MIC (E. coli DH5α)?
A: The MIC was 25 µg/mL.

Q: And the “MIC against P. vulgaris” value (Proteus vulgaris; 96-well plate, 37° C., 10 h)?
A: The value was 50 µg/mL.

Q: What about the “MIC against S. marcescens” value (Serratia marcescens; 96-well plate, 37° C., 10 h) of the same substance?
A: Its value is 12.5 µg/mL.

Q: What about the “MIC against E. cloacae” value (Enterobacter cloacae; 96-well plate, 37° C., 10 h) of the same substance?
A: The value was 25 µg/mL.

Q: And the “MIC against K. pneumonia” value (Klebsiella pneumonia; 96-well plate, 37° C., 10 h)?
A: Its value is 12.5 µg/mL.

Q: And the “MIC against A. hydrophila” value (Aeromonas hydrophila; 96-well plate, 37° C., 10 h)?
A: Its value is 50 µg/mL.

Q: With “PRT1105 (EIDECWSQPCLNGATCQDALGAYFCDCAPGFLGDHCE; listed as Homo sapiens)” as the substance, how does the “MIC E. coli BL21” value (E. coli BL21; [11]) read?
A: Its value is 25 µg/mL.

Q: And the “MIC P. aeruginosa” value (Pseudomonas aeruginosa; [11])?
A: The value was 50 µg/mL.

Q: What about the “MIC C. diversus” value (Citrobacter diversus; [11]) of the same substance?
A: The value was 12.5 µg/mL.

Q: What about the “MIC M. catarrhalis” value (Moraxella catarrhalis; [11]) of the same substance?
A: Its value is 25 µg/mL.

Q: And the “MIC P. mirabilis” value (Proteus mirabilis; [11])?
A: The value was 50 µg/mL.

Q: And the MIC (E. coli DH5α)?
A: The MIC was 12.5 µg/mL.

Q: And the “MIC P. vulgaris” value (Proteus vulgaris; [11])?
A: The value was 12.5 µg/mL.

Q: What about the “MIC S. marcescens” value (Serratia marcescens; [11]) of the same substance?
A: The value was 50 µg/mL.

Q: What about the “MIC E. cloacae” value (Enterobacter cloacae; [11]) of the same substance?
A: The value was 50 µg/mL.

Q: What about the “MIC K. pneumonia” value (Klebsiella pneumonia; [11]) of the same substance?
A: Its value is 12.5 µg/mL.

Q: And the “MIC A. hydrophila” value (Aeromonas hydrophila; [11])?
A: The value was 25 µg/mL.

Q: How did the “MIC E. coli BL21” value (E. coli BL21; [11]) turn out when “PRT1045 (HGPGCQEHCLCLHGGVCQATSGLCQCAPGYTGPHCA; listed as Homo sapiens)” was run?
A: The value was 50 µg/mL.

Q: And the “MIC P. aeruginosa” value (Pseudomonas aeruginosa; [11])?
A: Its value is 25 µg/mL.

Q: What about the “MIC C. diversus” value (Citrobacter diversus; [11]) of the same substance?
A: Its value is 50 µg/mL.

Q: And the “MIC M. catarrhalis” value (Moraxella catarrhalis; [11])?
A: Its value is 50 µg/mL.

Q: And the “MIC P. mirabilis” value (Proteus mirabilis; [11])?
A: The value was 12.5 µg/mL.

Q: And the MIC (E. coli DH5α)?
A: Its MIC is 25 µg/mL.

Q: And the “MIC P. vulgaris” value (Proteus vulgaris; [11])?
A: The value was 50 µg/mL.

Q: What about the “MIC S. marcescens” value (Serratia marcescens; [11]) of the same substance?
A: Its value is 50 µg/mL.

Q: And the “MIC E. cloacae” value (Enterobacter cloacae; [11])?
A: Its value is 12.5 µg/mL.

Q: And the “MIC K. pneumonia” value (Klebsiella pneumonia; [11])?
A: Its value is 50 µg/mL.

Q: What about the “MIC A. hydrophila” value (Aeromonas hydrophila; [11]) of the same substance?
A: The value was 50 µg/mL.

Q: Which “MIC against E. coli BL21” value (E. coli BL21; [1]) does the source give for “PRT1249 (NQCACNSSPCEQQSGRCQCRERTFGARCD; listed as Homo sapiens)” here?
A: The value was 12.5 µg/mL.

Q: What about the “MIC against P. aeruginosa” value (Pseudomonas aeruginosa; [2]) of the same substance?
A: Its value is 50 µg/mL.

Q: What about the “MIC against C. diversus” value (Citrobacter diversus; [3]) of the same substance?
A: Its value is 50 µg/mL.

Q: What about the “MIC against M. catarrhalis” value (Moraxella catarrhalis; [4]) of the same substance?
A: The value was 12.5 µg/mL.

Q: What about the “MIC against P. mirabilis” value (Proteus mirabilis; [5]) of the same substance?
A: The value was 25 µg/mL.

Q: And the MIC (E. coli DH5α)?
A: Its MIC is 12.5 µg/mL.

Q: And the “MIC against P. vulgaris” value (Proteus vulgaris; [6])?
A: Its value is 50 µg/mL.

Q: And the “MIC against S. marcescens” value (Serratia marcescens; [7])?
A: The value was 25 µg/mL.

Q: And the “MIC against E. cloacae” value (Enterobacter cloacae; [8])?
A: The value was 50 µg/mL.

Q: What about the “MIC against K. pneumonia” value (Klebsiella pneumonia; [9]) of the same substance?
A: Its value is 12.5 µg/mL.

Q: And the “MIC against A. hydrophila” value (Aeromonas hydrophila; [10])?
A: Its value is 12.5 µg/mL.

— patent US9833497B2, “Human originated EGF domain proteins and use of the same” (CHENGDU SOURCEBIO LIMITED-LIABILITY COMPANY, priority 2013, dated 2017)
